Test results: ChEMBL document CHEMBL3045093, “Synthesis, spectral correlation and insect antifeedant activities of some 2-benzimidazole chalcones” (J Saudi Chem Soc, 2013)
The source made the active and inactive calls. The rule behind the calls is not given here.

Columns and labels:
Achaea janata [1] = test: Antifeedant activity against 4th instar larvae of Achaea janata in […] leaves assessed as total leaf disc consumed at 200 ppm after 24 hrs by leaf disc bioassay; type: functional, organism-based
Achaea janata [2] = test: Antifeedant activity against 4th instar larvae of Achaea janata in […] leaves assessed as total leaf disc consumed at 150 ppm after 24 hrs by leaf disc bioassay; type: functional, organism-based

Row | SMILES | Activity (Achaea janata [1]) | Activity (Achaea janata [2])
1 | O=C(/C=C/c1cccc(O)c1)c1nc2ccccc2[nH]1 | Active | 
2 | Cc1ccccc1/C=C/C(=O)c1nc2ccccc2[nH]1 | Active | 
3 | O=C(/C=C/c1cccc([N+](=O)[O-])c1)c1nc2ccccc2[nH]1 | Active | 
4 | O=C(/C=C/c1ccccc1[N+](=O)[O-])c1nc2ccccc2[nH]1 | Active | 
5 | O=C(/C=C/c1ccc(F)cc1)c1nc2ccccc2[nH]1 | Active | 
6 | O=C(/C=C/c1ccc(O)cc1)c1nc2ccccc2[nH]1 | Active | 
7 | O=C(/C=C/c1ccc([N+](=O)[O-])cc1)c1nc2ccccc2[nH]1 | Active | 
8 | O=C(/C=C/c1ccccc1Br)c1nc2ccccc2[nH]1 | Active | 
9 | COc1ccccc1/C=C/C(=O)c1nc2ccccc2[nH]1 | Active | 
10 | O=C(/C=C/c1cccc(Cl)c1)c1nc2ccccc2[nH]1 | Active | 
11 | O=C(/C=C/c1ccc(Br)cc1)c1nc2ccccc2[nH]1 | Active | Active
12 | O=C(/C=C/c1cccc(Br)c1)c1nc2ccccc2[nH]1 | Active | 
13 | Cc1cccc(/C=C/C(=O)c2nc3ccccc3[nH]2)c1 | Active | 
14 | O=C(/C=C/c1ccccc1Cl)c1nc2ccccc2[nH]1 | Active | 
15 | Cc1ccc(/C=C/C(=O)c2nc3ccccc3[nH]2)cc1 | Active | 
16 | O=C(/C=C/c1ccc(Cl)cc1)c1nc2ccccc2[nH]1 | Active | 
17 | O=C(/C=C/c1ccccc1O)c1nc2ccccc2[nH]1 | Active | 
18 | O=C(/C=C/c1ccccc1)c1nc2ccccc2[nH]1 | Active | 
19 | CN(C)c1ccc(/C=C/C(=O)c2nc3ccccc3[nH]2)cc1 | Active | 
20 | COc1cccc(/C=C/C(=O)c2nc3ccccc3[nH]2)c1 | Active | 
21 | COc1ccc(/C=C/C(=O)c2nc3ccccc3[nH]2)cc1 | Active | 
